Here are results for five compounds from publication PMC10776687 (Nature Communications, 2024).

Each structure is given as a SMILES string.

What all share (type): cell-based
In assay [1] the target is T1, human serotonin transporter (SERT) (Homo sapiens, UniProt P31645).
T1 construct: gene SLC6A4; human WT SERT, N-terminal eYFP fusion, stably expressed in HEK293 cells
Description: [3H]5HT uptake inhibition in HEK293 cells; whole-cell patch clamp (almost pure inhibitor).

In assay [2] the target is T1, human serotonin transporter (SERT). In words: [3H]5HT uptake inhibition in HEK293 cells; whole-cell patch clamp (partial substrate, kon/koff).
Assay [3] has the same target. In words: [3H]5HT uptake inhibition in HEK293 cells; whole-cell patch clamp (partial substrate, kon/koff); efflux.
Assay [4] shares this target. Description: [3H]5HT uptake kinetics (Km/Vmax) in HEK293 cells at the compound's IC50, n = […].

T1 sequence (P31645 whole entry, the tested form may be a part): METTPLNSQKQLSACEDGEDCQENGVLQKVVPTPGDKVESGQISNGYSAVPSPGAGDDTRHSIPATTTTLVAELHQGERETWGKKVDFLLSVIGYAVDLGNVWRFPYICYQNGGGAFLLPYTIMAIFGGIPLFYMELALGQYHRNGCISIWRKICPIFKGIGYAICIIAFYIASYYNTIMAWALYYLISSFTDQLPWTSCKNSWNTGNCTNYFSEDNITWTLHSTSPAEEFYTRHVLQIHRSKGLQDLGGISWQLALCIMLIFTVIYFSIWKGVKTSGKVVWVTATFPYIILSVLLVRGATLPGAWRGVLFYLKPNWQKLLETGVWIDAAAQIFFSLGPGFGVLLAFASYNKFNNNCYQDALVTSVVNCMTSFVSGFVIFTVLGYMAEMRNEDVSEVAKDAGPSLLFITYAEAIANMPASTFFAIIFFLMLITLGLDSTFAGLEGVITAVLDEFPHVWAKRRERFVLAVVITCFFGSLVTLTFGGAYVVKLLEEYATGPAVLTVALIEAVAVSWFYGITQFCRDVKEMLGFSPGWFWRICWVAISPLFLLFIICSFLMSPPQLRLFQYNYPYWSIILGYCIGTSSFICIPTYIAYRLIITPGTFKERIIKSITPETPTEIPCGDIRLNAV

In assay [1], `NCc1c[nH]c2ccc(O)cc12` [M-5HT] showed an IC50 of 79300 nM. In other words, the double-digit micromolar range.
With `NCCCCc1c[nH]c2ccc(O)cc12` [B-5HT, butyl (B)-5HT], the IC50 in assay [2] is 270 nM. This lies in the sub-micromolar range.
For `NCCCc1c[nH]c2ccc(O)cc12` [P-5HT, propyl (P)-5HT], 590 nM corresponded to half-maximal inhibition in assay [3] (IC50).
The compound `CC[C@H]1C[C@@H]2C[C@H]3c4[nH]c5ccc(OC)cc5c4CCN(C2)[C@@H]13` [IBO, ibogaine] displayed an IC50 in assay [4] of 24000 nM.
As to `COC(=O)[C@H]1[C@@H](OC(=O)c2ccccc2)C[C@@H]2CC[C@H]1N2C` [COC, cocaine], the IC50 in assay [4] came to 4000 nM.
